For 23 molecules, IC50 results are on record in US20260355196A1, “INHIBITORS AND DEGRADERS OF PIP4K PROTEIN” (Larkspur Biosciences, Inc., priority 2023, published 2026).

This assay concerns the target T1, PIP4K2C (Homo sapiens, UniProt Q8TBX8).
T1 sequence (Q8TBX8 1-421): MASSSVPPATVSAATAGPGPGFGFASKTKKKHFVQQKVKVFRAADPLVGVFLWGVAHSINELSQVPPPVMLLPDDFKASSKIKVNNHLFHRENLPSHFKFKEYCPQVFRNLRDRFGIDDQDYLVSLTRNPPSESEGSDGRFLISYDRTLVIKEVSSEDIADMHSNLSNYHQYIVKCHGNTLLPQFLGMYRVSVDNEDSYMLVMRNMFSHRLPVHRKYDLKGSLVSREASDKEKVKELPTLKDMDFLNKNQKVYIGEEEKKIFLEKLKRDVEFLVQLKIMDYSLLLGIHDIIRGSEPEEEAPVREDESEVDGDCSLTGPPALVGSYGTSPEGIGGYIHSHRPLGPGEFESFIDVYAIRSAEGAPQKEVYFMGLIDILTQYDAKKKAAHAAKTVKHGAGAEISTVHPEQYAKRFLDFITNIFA
The experiment in a line: Enzyme Binding Assay (KINOMEscan): active site-directed competition binding to an immobilized ligand. Set-up: purchased Eurofins DiscoverX, San Diego, CA 87-0007-1094. To be noted: 11-point dose response, duplicate, top concentration 5 micromolar; read-out: Pip4k2c Kd: IC50. In outline: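 Active site-directed competition binding against an immobilized ligand. 11-point dose-response in duplicate, top concentration 5 micromolar; IC50 from a Hill equation fitted by the Levenberg-Marquardt algorithm.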
With `NC(=O)[C@H]1CC[C@H](Nc2ncc(F)c(-c3cccc(N4CCOCC4)c3)n2)CC1` [Compound 607, trans-4-((5-fluoro-4-(3-morpholinophenyl)pyrimidin-2-yl)amino) cyclohexane-1-carboxamide], the IC50 (commonly the midpoint of a concentration-inhibition curve) was below 500 nM.
In the case of `CC(=O)N[C@H]1CC[C@H](Nc2ncc(F)c(-c3cccc(N4CCOCC4)c3)n2)CC1` [Compound 608, trans-N-(4-((5-fluoro-4-(3-morpholinophenyl)pyrimidin-2-yl)amino)cyclohexyl)acetamide], the IC50 is below 500 nM.
Next, `CC(=O)N[C@H]1CC[C@H](Nc2ncc(F)c(-c3cccc(-c4ccccc4)c3)n2)CC1` [Compound 609, trans-N-(4-((4-([1,1′-biphenyl]-3-yl)-5-fluoropyrimidin-2-yl)amino)cyclohexyl)acetamide]: below 500 nM.
As for `NC(=O)[C@H]1CC[C@H](Nc2ncc(F)c(-c3cccc(-c4ccccc4)c3)n2)CC1` [Compound 610, trans-4-((4-([1,1′-biphenyl]-3-yl)-5-fluoropyrimidin-2-yl)amino)cyclohexane-1-carboxamide], the IC50 was below 500 nM.
`CC(=O)N1CCC(Nc2ncc(F)c(-c3cccc(-c4ccccc4)c3)n2)CC1` [Compound 611, 1-(4-((4-([1,1′-biphenyl]-3-yl)-5-fluoropyrimidin-2-yl)amino)piperidin-1-yl)ethan-1-one]: the IC50 was below 500 nM.
Next, `NC(=O)[C@@H]1CCC[C@H](Nc2ncc(F)c(-c3cccc(-c4ccccc4)c3)n2)C1` [Compound 612, (1R,3S)-3-((4-([1,1′-biphenyl]-3-yl)-5-fluoropyrimidin-2-yl)amino) cyclohexane-1-carboxamide]: below 500 nM; `CC(=O)N1CC[C@H](Nc2ncc(F)c(-c3cccc(-n4ccccc4=O)c3)n2)C1` [Compound 613, (S)-1-(3-(2-((1-acetylpyrrolidin-3-yl)amino)-5-fluoropyrimidin-4-yl)phenyl)pyridin-2(1H)-one]: below 500 nM; `CC(=O)N1CCC(Nc2ncc(F)c(-c3cccc(-n4ccccc4=O)c3)n2)CC1` [Compound 614, 1-(3-(2-((1-acetylpiperidin-4-yl)amino)-5-fluoropyrimidin-4-yl)phenyl)pyridin-2(1H)-one]: below 500 nM.
Next, `NC(=O)[C@H]1CC[C@H](Nc2ncc(F)c(-c3cccc(N4CCCCC4)c3)n2)CC1` [Compound 615, trans-4-((5-fluoro-4-(3-(piperidin-1-yl)phenyl)pyrimidin-2-yl)amino)cyclohexane-1-carboxamide]: below 500 nM.
Next, `CC(=O)N[C@H]1CC[C@H](Nc2ncc(F)c(-c3cccc(N4CCCCC4)c3)n2)CC1` [Compound 616, trans-N-(4-((5-fluoro-4-(3-(piperidin-1-yl)phenyl)pyrimidin-2-yl)amino)cyclohexyl)acetamide]: below 500 nM; `NC(=O)[C@H]1CC[C@H](Nc2ncc(F)c(-c3cccc(-n4ccccc4=O)n3)n2)CC1` [Compound 617, trans-4-((5-fluoro-4-(2-oxo-2H-[1,2′-bipyridin]-6′-yl)pyrimidin-2-yl)amino)cyclohexane-1-carboxamide]: below 500 nM; `NC(=O)[C@H]1CC[C@H](Nc2ncc(F)c(-c3cccc(C4CC4)c3)n2)CC1` [Compound 618, trans-(1r,4r)-4-((4-(3-cyclopropylphenyl)-5-fluoropyrimidin-2-yl)amino)cyclohexane-1-carboxamide]: below 500 nM.
Turning to `CC(=O)N[C@H]1CC[C@H](Nc2ncc(F)c(-c3cccc(C4CC4)c3)n2)CC1` [Compound 619, trans-N-((1r,4r)-4-((4-(3-cyclopropylphenyl)-5-fluoropyrimidin-2-yl)amino)cyclohexyl)acetamide], the IC50 was below 500 nM.
As for `NC(=O)[C@H]1CC[C@H](Nc2ncc(F)c(-c3cccc(C4(O)CCC4)n3)n2)CC1` [Compound 620, trans-4-((5-fluoro-4-(6-(1-hydroxycyclobutyl)pyridin-2-yl)pyrimidin-2-yl)amino)cyclohexane-1-carboxamide], the IC50 was below 500 nM.
Consider `NC(=O)[C@H]1CC[C@H](Nc2ncc(F)c(-c3cccc(N4CCCOC4=O)n3)n2)CC1` [Compound 621, trans-4-((5-fluoro-4-(6-(2-oxo-1,3-oxazinan-3-yl)pyridin-2-yl)pyrimidin-2-yl)amino)cyclohexane-1-carboxamide], for which the IC50 is below 500 nM.
Next, `NC(=O)[C@H]1CC[C@H](Nc2ncc(F)c(-c3ccnc(N4CCCOC4=O)c3)n2)CC1` [Compound 622, trans-4-[[5-fluoro-4-[2-(2-oxo-1,3-oxazinan-3-yl)-4-pyridyl]pyrimidin-2-yl]amino]cyclohexanecarboxamide]: below 500 nM; `NC(=O)[C@H]1CC[C@H](Nc2ncc(F)c(-c3ccnc(-n4ccccc4=O)c3)n2)CC1` [Compound 623, trans-4-((5-fluoro-4-(2-oxo-2H-[1,2′-bipyridin]-4′-yl)pyrimidin-2-yl)amino)cyclohexane-1-carboxamide]: below 500 nM; `CC(=O)N[C@H]1CC[C@H](Nc2ncc(F)c(-c3cccc(N4CCCOC4=O)n3)n2)CC1` [Compound 624, N-(trans-4-((5-fluoro-4-(6-(2-oxo-1,3-oxazinan-3-yl)pyridin-2-yl)pyrimidin-2-yl)amino)cyclohexyl)acetamide]: below 500 nM.
Next, `CC(=O)N[C@H]1CC[C@H](Nc2ncc(F)c(-c3cccc(N4CCCCC4=O)n3)n2)CC1` [Compound 625, N-(trans-4-((5-fluoro-4-(6-(2-oxopiperidin-1-yl)pyridin-2-yl)pyrimidin-2-yl)amino)cyclohexyl) acetamide]: below 500 nM.
For `CC(=O)N[C@H]1CC[C@H](Nc2ncc(F)c(-c3cccc(-n4ccccc4=O)n3)n2)CC1` [Compound 626, trans-N-(4-((5-fluoro-4-(2-oxo-2H-[1,2′-bipyridin]-6′-yl)pyrimidin-2-yl)amino)cyclohexyl)acetamide], the half-inhibitory concentration (IC50) is below 500 nM.
Next, `CC(=O)N1CCC(Nc2ncc(F)c(-c3ccnc(N4CCOCC4=O)c3)n2)CC1` [Compound 628, 4-(4-(2-((1-acetylpiperidin-4-yl)amino)-5-fluoropyrimidin-4-yl)pyridin-2-yl)morpholin-3-one]: below 500 nM.
Next, `CC(=O)N1CCC(Nc2ncc(F)c(-c3cccc(N4CCOCC4=O)n3)n2)CC1` [Compound 630, 4-(6-(2-((1-acetylpiperidin-4-yl)amino)-5-fluoropyrimidin-4-yl)pyridin-2-yl)morpholin-3-one]: below 500 nM; `CC(=O)N[C@H]1CC[C@H](Nc2ncc(F)c(-c3cccc(C4CCC(=O)NC4)c3)n2)CC1` (stereo partly drawn) [Compound 631, N-(trans-4-((5-fluoro-4-(3-(6-oxopiperidin-3-yl)phenyl)pyrimidin-2-yl)amino)cyclohexyl)acetamide]: below 500 nM.
